For ten compounds, Max % inhibition and IC50 results are on record in patent publication US20230089867A1, “CYCLIC PENTAMER COMPOUNDS AS PROPROTEIN CONVERTASE SUBTILISIN/KEXIN TYPE 9 (PCSK9) INHIBITORS FOR THE TREATMENT OF METABOLIC DISORDER” (Novartis AG, priority 2018, published 2023).

The experiment concerns the target human PCSK9 (Homo sapiens, UniProt Q8NBP7). Kind of experiment: PCSK9 ligand binding TR-FRET assay (interference with binding of human PCSK9 to human LDLR). Conditions: for Max % inhibition: PCSK9 FRET assay, efficacy (Amax), 100% = 1 uM unlabeled human PCSK9, 0% = DMSO; for IC50: TR-FRET, human PCSK9 Alexa Fluor 647 / human LDLR extracellular domain-Europium Kryptate, read-out: PCSK9 FRET Assay IC50. Put shortly:
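Threefold compound dilutions were pre-incubated 30 min with PCSK9, after which 4 nM Europium Kryptate-tagged human LDLR ectodomain was added for a further 2 h.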
(In general: In TR-FRET formats the signal depends on donor and acceptor labels being close together.)

Sequence of human PCSK9 (Q8NBP7 153-692): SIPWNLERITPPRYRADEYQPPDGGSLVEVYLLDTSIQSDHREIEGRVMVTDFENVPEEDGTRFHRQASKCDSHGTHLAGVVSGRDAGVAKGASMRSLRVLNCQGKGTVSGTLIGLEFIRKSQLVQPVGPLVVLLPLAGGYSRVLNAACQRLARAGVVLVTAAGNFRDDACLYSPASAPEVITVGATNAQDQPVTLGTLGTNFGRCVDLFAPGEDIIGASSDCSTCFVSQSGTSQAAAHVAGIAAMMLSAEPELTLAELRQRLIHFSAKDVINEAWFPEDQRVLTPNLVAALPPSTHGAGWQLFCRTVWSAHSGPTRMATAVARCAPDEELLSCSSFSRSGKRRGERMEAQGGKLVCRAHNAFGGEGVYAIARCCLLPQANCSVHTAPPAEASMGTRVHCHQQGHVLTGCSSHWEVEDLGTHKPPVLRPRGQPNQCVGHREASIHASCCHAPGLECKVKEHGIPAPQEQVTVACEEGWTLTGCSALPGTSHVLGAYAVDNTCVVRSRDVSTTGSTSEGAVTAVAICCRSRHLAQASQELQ
Sequence of human PCSK9 (Q8NBP7 31-152 partner limits assumed): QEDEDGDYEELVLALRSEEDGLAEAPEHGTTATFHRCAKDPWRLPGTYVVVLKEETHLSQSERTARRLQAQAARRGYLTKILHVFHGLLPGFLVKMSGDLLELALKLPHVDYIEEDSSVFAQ

Turning to `CCOC(=O)c1ncn(-c2ccc(Oc3cc(Cl)ccc3CN3C(=O)C[C@@H](Cc4ccccc4)C(=O)N(C)[C@@H](C)CNC(=O)C[C@H](Cc4ccc(Cl)cc4)N(C)C(=O)[C@H](COC)NC(=O)[C@@H]3C)cc2)c1C` [Compound 149, ethyl 1-(4-(2-(((2S,5S,8S,13S,16R)-16-benzyl-8-(4-chlorobenzyl)-5-(methoxymethyl)-2,7,13,14-tetramethyl-3,6,10,15,18-pentaoxo-1,4,7,11,14-pentaazacyclooctadecan-1-yl)methyl)-5-chlorophenoxy)phenyl)-5-methyl-1H-imidazole-4-carboxylate], the Max % inhibition amounted to 72.43% and the IC50 was determined as 18.7 nM.

Consider `CCc1ccc(CN2C(=O)C[C@@H](Cc3ccccc3)C(=O)N(C)[C@@H](C)CNC(=O)C[C@H](Cc3ccc(Cl)cc3)N(C)C(=O)[C@H](COC)NC(=O)[C@@H]2C)c(Oc2ccc(-c3cnc(CN4CCCC4)n3C)cc2)c1.Cl` [Compound 150, (2S,5S,8S,13S,16R)-16-benzyl-8-(4-chlorobenzyl)-1-(4-ethyl-2-(4-(1-methyl-2-(pyrrolidin-1-ylmethyl)-1H-imidazol-5-yl)phenoxy)benzyl)-5-(methoxymethyl)-2,7,13,14-tetramethyl-1,4,7,11,14-pentaazacyclooctadecane-3,6,10,15,18-pentaone hydrochloride], for which the Max % inhibition came out at 104.13% and the IC50 was 0.8 nM.

`CCC(O)c1ncc(-c2ccc(Oc3cc(Cl)ccc3CN3C(=O)C[C@@H](Cc4ccccc4)C(=O)N(C)[C@@H](C)CNC(=O)C[C@H](Cc4ccc(Cl)cc4)N(C)C(=O)[C@H](COC)NC(=O)[C@@H]3C)cc2)n1C` (stereo partly drawn) [Compound 151, (2S,5S,8S,13S,16R)-16-benzyl-1-(4-chloro-2-(4-(2-(1-hydroxypropyl)-1-methyl-1H-imidazol-5-yl)phenoxy)benzyl)-8-(4-chlorobenzyl)-5-(methoxymethyl)-2,7,13,14-tetramethyl-1,4,7,11,14-pentaazacyclooctadecane-3,6,10,15,18-pentaone]: the Max % inhibition is 64.23% and the IC50 came to 8.8 nM.

For `COC[C@@H]1NC(=O)[C@H](C)N(Cc2ccc(Cl)cc2Oc2ccc(-c3cnc([C@@H](C)N4CCCC4)n3C)cc2)C(=O)C[C@@H](Cc2ccccc2)C(=O)N(C)[C@H]2CCCC[C@@H]2NC(=O)C[C@H](Cc2ccc(Cl)cc2)N(C)C1=O` [Compound 152, (4S,7S,10S,14R,16aS,20aS)-14-benzyl-11-(4-chloro-2-(4-(1-methyl-2-((R)-1-(pyrrolidin-1-yl)ethyl)-1H-imidazol-5-yl)phenoxy)benzyl)-4-(4-chlorobenzyl)-7-(methoxymethyl)-5,10,16-trimethylhexadecahydrobenzo[l][1,4,7,11,14]pentaazacyclooctadecine-2,6,9,12,15(3H)-pentaone], the Max % inhibition is given as 107.64% and the IC50 was found to be 1.2 nM.

Regarding `COC[C@@H]1NC(=O)[C@H](C)N(Cc2c(OC)cccc2Oc2ccc(-c3cnc(CN(C)C)n3C)cc2)C(=O)C[C@@H](Cc2ccccc2)C(=O)N(C)[C@@H](C)CNC(=O)C[C@H](Cc2ccc(Cl)cc2)N(C)C1=O` [Compound 154, (2S,5S,8S,13S,16R)-16-benzyl-8-(4-chlorobenzyl)-1-(2-(4-(2-((dimethylamino)methyl)-1-methyl-1H-imidazol-5-yl)phenoxy)-6-methoxybenzyl)-5-(methoxymethyl)-2,7,13,14-tetramethyl-1,4,7,11,14-pentaazacyclooctadecane-3,6,10,15,18-pentaone], the Max % inhibition is on record as 80.05% and the IC50 was determined as 5.1 nM.

With `COC[C@@H]1NC(=O)[C@H](C)N(Cc2ccc(Cl)cc2Oc2ccc(-c3cnc(CN4CCCC4)n3C)cc2)C(=O)C[C@@H](Cc2cccc(F)c2)C(=O)N(C)[C@@H](C)CNC(=O)C[C@H](Cc2ccc(Cl)cc2)N(C)C1=O` [Compound 155, (2S,5S,8S,13S,16R)-1-(4-chloro-2-(4-(1-methyl-2-(pyrrolidin-1-ylmethyl)-1H-imidazol-5-yl)phenoxy)benzyl)-8-(4-chlorobenzyl)-16-(3-fluorobenzyl)-5-(methoxymethyl)-2,7,13,14-tetramethyl-1,4,7,11,14-pentaazacyclooctadecane-3,6,10,15,18-pentaone], the Max % inhibition was found to be 98.43% and the IC50 worked out at 0.8 nM.

Take `COCC[C@H]1C(=O)N[C@@H](COC)C(=O)N(C)[C@@H](Cc2ccc(Cl)cc2)CC(=O)NC[C@H](C)N(C)C(=O)[C@H](Cc2ccccc2)CC(=O)N1Cc1ccc(Cl)cc1Oc1ccc(-c2cnc(CN(C)C)n2C)cc1` [Compound 156, (2S,5S,8S,13S,16R)-16-benzyl-1-(4-chloro-2-(4-(2-((dimethylamino)methyl)-1-methyl-1H-imidazol-5-yl)phenoxy)benzyl)-8-(4-chlorobenzyl)-2-(2-methoxyethyl)-5-(methoxymethyl)-7,13,14-trimethyl-1,4,7,11,14-pentaazacyclooctadecane-3,6,10,15,18-pentaone]: the Max % inhibition was found to be 108.38% and the IC50 came to 3.7 nM.

For `COC[C@@H]1NC(=O)[C@H](C)N(Cc2ccc(Cl)cc2Oc2ccc(-c3cnc(CN4CC5(COC5)C4)n3C)cc2)C(=O)C[C@@H](Cc2ccccc2)C(=O)N(C)[C@H]2CCCC[C@@H]2NC(=O)C[C@H](Cc2ccc(Cl)cc2)N(C)C1=O` [Compound 157, (4S,7S,10S,14R,16aS,20aS)-11-(2-(4-(2-(2-oxa-6-azaspiro[3.3]heptan-6-ylmethyl)-1-methyl-1H-imidazol-5-yl)phenoxy)-4-chlorobenzyl)-14-benzyl-4-(4-chlorobenzyl)-7-(methoxymethyl)-5,10,16-trimethylhexadecahydrobenzo[l][1,4,7,11,14]pentaazacyclooctadecine-2,6,9,12,15(3H)-pentaone], the Max % inhibition amounted to 89.28% and the IC50 stood at 1.8 nM.

With `COC[C@@H]1NC(=O)[C@H](CCCN2CCOCC2)N(Cc2ccc(Cl)cc2Oc2ccc(-c3cnc(CN(C)C)n3C)cc2)C(=O)C[C@@H](Cc2ccccc2)C(=O)N(C)[C@@H](C)CNC(=O)C[C@H](Cc2ccc(Cl)cc2)N(C)C1=O` [Compound 158, (2S,5S,8S,13S,16R)-16-benzyl-1-(4-chloro-2-(4-(2-((dimethylamino)methyl)-1-methyl-1H-imidazol-5-yl)phenoxy)benzyl)-8-(4-chlorobenzyl)-5-(methoxymethyl)-7,13,14-trimethyl-2-(3-morpholinopropyl)-1,4,7,11,14-pentaazacyclooctadecane-3,6,10,15,18-pentaone], the Max % inhibition is on record as 98.98% and the IC50 was 1.4 nM.

With `COC[C@@H]1NC(=O)[C@H](C)N(Cc2ccc(Cl)cc2Oc2ccc(-c3cnc(CN(C)C)n3C)cc2)C(=O)C[C@@H](OC)C(=O)N(C)[C@@H](C)CNC(=O)C[C@H](Cc2ccc(Cl)cc2)N(C)C1=O` [Compound 159, (2S,5S,8S,13S,16R)-1-(4-chloro-2-(4-(2-((dimethylamino)methyl)-1-methyl-1H-imidazol-5-yl)phenoxy)benzyl)-8-(4-chlorobenzyl)-16-methoxy-5-(methoxymethyl)-2,7,13,14-tetramethyl-1,4,7,11,14-pentaazacyclooctadecane-3,6,10,15,18-pentaone], the Max % inhibition was determined as 55.26% and the IC50 is 74 nM.

In general, IC50 refers to the midpoint of a concentration-inhibition curve.
